Entries after “also recorded” stand apart in the source; their conditions may differ.
Legend:
hTRPM8 = target: T1, hTRPM8 (Homo sapiens, UniProt Q7Z2W7); experiment: Ca2+ microfluorography assay, HEK293 cells expressing hTRPM8; format: cell-based; settings: HEK293-hTRPM8, 100 μM menthol
T1 construct: expressed in transfected cells
Experimental: This represents a similar activity as β–lactam 2 and a somewhat higher potency than the model TRPM8 antagonists AMTB.
To measure the effect of the compounds against TRPM8 activity we used microfluorometry-based calcium flux assays with Fluo-4 NW Ca^2+ dye and fluorescence as described in [30]. Briefly, human embryonic kidney cell line (HEK293) cells stably transfected with rTRPM8 or hTRPM8 were seeded in 96-well plates at a cell density of 30,000 cells. After 2 days the medium was replaced with 100 μL of the dye, Fluo-4 NW, loading solution supplemented with probenecid 2.5 mM and incubated 1 h at 37 °C. The TRPM8 activity was measured using POLASTAR plate reader (BMG Labtech) setting the excitation wavelength at 485 nm and the emission wavelength at 520 nm. The baseline fluorescence was recorded for 3 cycles before the addition of vehicle compound at different concentrations and the antagonist, 10 μM AMTB. Fluorescence intensity was recorded during 7 more cycles and 100 μM menthol was added. Fluorescence intensity was recorded during 10 more cycles.
Data analysis: The Z-factor was calculated in each assay using the following equation: (3 × (SDmax + SDmin))/(Mean max-Mean min). In all the experiments, the Z-factor was ≥0.5. The effect of the compounds against TRPM8 activity was determined by normalizing their effect on the maximum fluorescence observed after application of 100 μM menthol. […]

rats = experiment: Behaviour observed after i.p. injection in the CCI study; format: in vivo, rat; settings: i.p. 30 mg/kg
Experimental: This behavior lasted 3-5 min and could possibly be related to the TRPV1 agonist activity of compound RGM8-51.
Rats were allocated into 2 groups to receive RGM8-51 and vehicle (DMSO 2% i.pl., or 150 µL/kg i.p.) by either the i.pl. (10 µg in 20 µL; n = 5 animals) or i.p. (10 or 30 mg/kg in 150 µL/kg; n = 8 animals) route. Responses to cold/heat/mechanical stimulation were assessed 30 min before and 30 min after RGM8-51 or vehicle injection. Behavioral testing prior to drug administration served to ascertain baseline conditions and the stability of cold, heat and mechanical hypersensitivity after surgery. RGM-8-51 stock was prepared in DMSO (Sigma-Aldrich) and diluted in saline for injections. Data are given as the mean ± standard error of the mean (SEM) of the corresponding number of behavioral measurements/animals used. Statistical analysis was performed by using the paired t-test (GraphPad 8; San Diego, CA, USA).

[1] = system: NTG-induced mechanical hypersensitivity in C57BL6 mice; experiment: NTG-induced mechanical hypersensitivity, von Frey test; format: in vivo, mouse
Text: Administration of NTG intermittently produces a baseline hypersensitivity to mechanical stimulation, which can be measured by the von Frey test. The mechanical stimulus was applied at different times to obtain the time course of the effects produced after compound administration, and both male and female mice were used to investigate a possible sex dimorphism.
C57BL6 mice (males and females, ≈25 g) (Envigo, Blackthorn, UK) were used for the study. All experiments were approved by the Institutional Animal and Ethical Committee of the Universidad Miguel Hernandez where experiments were conducted and they were in accordance with the guidelines of the Economic European Community and the Committee for Research and Ethical Issues of the International Association for the Study of Pain. All parts of the study concerning animal care were performed under the control of veterinarians. […] The 50% response threshold was calculated using the following formula:50% (g) threshold = (10^(Xf + kd))/10,000 where Xf is the value of the last von Frey filament applied; k is a correction factor based on pattern of responses (from the Dixon’s calibration table); d is the mean distance in log units between stimuli (here, 0.4).
Von Frey threshold for each animal was calculated, according to the formula, and data analysis was performed by using GraphPad 6.0. […]

T1 sequence (Q7Z2W7 whole entry): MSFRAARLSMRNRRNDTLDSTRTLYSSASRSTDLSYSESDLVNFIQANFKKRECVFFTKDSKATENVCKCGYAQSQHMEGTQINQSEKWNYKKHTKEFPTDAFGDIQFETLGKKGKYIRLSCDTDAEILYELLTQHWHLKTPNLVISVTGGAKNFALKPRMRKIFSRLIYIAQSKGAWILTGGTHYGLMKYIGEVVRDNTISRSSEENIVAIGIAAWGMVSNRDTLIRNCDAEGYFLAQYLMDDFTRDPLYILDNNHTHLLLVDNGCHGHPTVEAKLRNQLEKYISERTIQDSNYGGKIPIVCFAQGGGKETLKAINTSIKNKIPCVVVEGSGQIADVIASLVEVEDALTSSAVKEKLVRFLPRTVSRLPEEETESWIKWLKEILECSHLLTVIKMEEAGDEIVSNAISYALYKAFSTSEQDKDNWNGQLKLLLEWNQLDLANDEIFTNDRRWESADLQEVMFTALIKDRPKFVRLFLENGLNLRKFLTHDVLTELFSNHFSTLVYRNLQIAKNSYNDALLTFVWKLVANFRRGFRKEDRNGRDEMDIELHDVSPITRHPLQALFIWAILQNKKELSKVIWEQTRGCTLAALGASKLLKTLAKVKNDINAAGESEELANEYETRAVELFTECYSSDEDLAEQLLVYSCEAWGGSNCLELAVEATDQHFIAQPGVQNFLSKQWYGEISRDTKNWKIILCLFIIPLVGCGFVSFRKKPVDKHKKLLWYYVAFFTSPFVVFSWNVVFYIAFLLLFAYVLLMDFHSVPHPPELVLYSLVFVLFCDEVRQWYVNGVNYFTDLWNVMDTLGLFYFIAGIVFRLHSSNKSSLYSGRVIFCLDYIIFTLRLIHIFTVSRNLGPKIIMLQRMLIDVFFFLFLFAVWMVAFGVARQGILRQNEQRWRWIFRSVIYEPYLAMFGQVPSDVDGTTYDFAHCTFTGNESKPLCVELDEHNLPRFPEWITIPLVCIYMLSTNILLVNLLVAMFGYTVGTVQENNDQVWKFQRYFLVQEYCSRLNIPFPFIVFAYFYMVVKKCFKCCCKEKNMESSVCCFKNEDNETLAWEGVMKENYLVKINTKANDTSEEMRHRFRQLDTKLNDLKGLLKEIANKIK

## C[C@@H]1C(=O)N(C[C@H](Cc2ccccc2)N(Cc2ccccc2)Cc2ccccc2)[C@]1(Cc1ccccc1)C(=O)OC(C)(C)C [RGM8-51, 4(S)-Benzyl-3S-methyl-4-(tert-butoxy)carbonyl-1-[(2′S-dibenzylamino-3′-phenyl)prop-1′-yl]-2-oxoazetidine]
hTRPM8
  IC50: 1740 ± 1190 nM
rats
  duration of writhing behavior: 3 to 5 min
  writhing behavior: writhing behavior was observed in a small number of animals
[1]; 30 mg/kg i.p., 60 min post-administration (only this dose and time)
  NTG-induced mechanical hypersensitivity, male mice: significantly blocked
[1]; 10 and 30 mg/kg i.p., significant at 30 min, lasting even after 120 min
  NTG-induced mechanical hypersensitivity, female mice: fully blocked; also recorded: significantly reduces the hypersensitivity threshold induced by NTG

Reference: PMC8910920 (International Journal of Molecular Sciences, 2022)
